Test results as given in patent publication US9884849B2, “Fluorinated benzofuranyl-pyrimidine derivatives containing a sulfoximine group” (Bayer Pharma Aktiengesellschaft, priority 2014, dated 2018).

Target: T1, CDK9/CycT1 (Homo sapiens, UniProt P50750)
T1 construct: Recombinant full-length His-tagged human CDK9 and CycT1; His; purchased Invitrogen PV4131; host or cells: insect cells
Assay: CDK9/CycT1 high ATP kinase assay (Method 1b, TR-FRET)
Assay type: biochemical
Details: 2 mM ATP; for Selectivity high ATP CDK9 over high ATP CDK2: IC50 (high ATP CDK2)/IC50 (high ATP CDK9): Methods 1b. and 2b.
Experimental: 1b. CDK9/CycT1 High ATP Kinase Assay
CDK9/CycT1-Inhibitory Activity of Compounds of the Present Invention at a High ATP Concentration after Preincubation of Enzyme and Test Compounds was Quantified Employing the CDK9/CycT1 TR-FRET Assay as Described in the Following Paragraphs.
Recombinant full-length His-tagged human CDK9 and CycT1, expressed in insect cells and purified by Ni-NTA affinity chromatography, were purchase from Invitrogen (Cat. No PV4131). As substrate for the kinase reaction biotinylated peptide biotin-Ttds-YISPLKSPYKISEG (C-terminus in amid form) was used which can be purchased e.g. form the company JERINI peptide technologies (Berlin, Germany). For the assay 50 nl of a 100 fold concentrated solution of the test compound in DMSO was pipetted into a black low volume 384 well microtiter plate (Greiner Bio-One, Frickenhausen, Germany), 2 μl of a solution of CDK9/CycT1 in aqueous assay buffer [50 mM Tris/HCl pH 8.0, 10 mM MgCl2, 1.0 mM dithiothreitol, 0.1 mM sodium ortho-vanadate, 0.01% (v/v) Nonidet-P40 (Sigma)] were added and the mixture was incubated for 15 min at 22° C. to allow pre-binding of the test compounds to the enzyme before the start of the kinase reaction. Then the kinase reaction was started by the addition of 3 μl of a solution of adenosine-tri-phosphate (ATP, 3.3 mM=>final conc. in the 5 μl assay volume is 2 mM) and substrate (1.67 μM=>final conc. in the 5 μl assay volume is 1 μM) in assay buffer and the resulting mixture was incubated for a reaction time of 25 min at 22° C. The concentration of CDK9/CycT1 was adjusted depending of the activity of the enzyme lot and was chosen appropriate to have the assay in the linear range, typical concentrations were in the range of 0.5 μg/mL. The reaction was stopped by the addition of 5 μl of a solution of TR-FRET detection reagents (0.2 μM streptavidine-XL665 [Cisbio Bioassays, Codolet, France] and 1 nM anti-RB(pSer807/pSer811)-antibody from BD Pharmingen [#558389] and 1.2 nM LANCE EU-W1024 labeled anti-mouse IgG antibody [Perkin-Elmer, product no. AD0077]) in an aqueous EDTA-solution (100 mM EDTA, 0.2% (w/v) bovine serum albumin in 100 mM HEPES/NaOH pH 7.0).
The resulting mixture was incubated 1 h at 22° C. to allow the formation of complex between the phosphorylated biotinylated peptide and the detection reagents. Subsequently the amount of phosphorylated substrate was evaluated by measurement of the resonance energy transfer from the Eu-chelate to the streptavidine-XL. Therefore, the fluorescence emissions at 620 nm and 665 nm after excitation at 350 nm was measured in a HTRF reader, e.g. a Rubystar (BMG Labtechnologies, Offenburg, Germany) or a Viewlux (Perkin-Elmer). The ratio of the emissions at 665 nm and at […] was taken as the measure for the amount of phosphorylated substrate. The data were normalised (enzyme reaction without inhibitor=0% inhibition, all other assay components but no enzyme=100% inhibition).

T1 sequence (P50750 whole entry): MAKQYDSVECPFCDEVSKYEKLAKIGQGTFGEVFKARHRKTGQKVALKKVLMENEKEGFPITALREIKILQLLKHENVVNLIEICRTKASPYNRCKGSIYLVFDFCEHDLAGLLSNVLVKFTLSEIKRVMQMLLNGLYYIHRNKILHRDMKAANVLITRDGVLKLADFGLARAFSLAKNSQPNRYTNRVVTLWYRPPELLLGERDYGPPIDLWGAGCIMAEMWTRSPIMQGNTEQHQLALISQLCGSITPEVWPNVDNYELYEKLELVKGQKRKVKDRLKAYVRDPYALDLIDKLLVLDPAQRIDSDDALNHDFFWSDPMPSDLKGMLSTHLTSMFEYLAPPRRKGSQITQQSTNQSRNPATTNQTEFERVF
T1 sequence (O60563 whole entry partner): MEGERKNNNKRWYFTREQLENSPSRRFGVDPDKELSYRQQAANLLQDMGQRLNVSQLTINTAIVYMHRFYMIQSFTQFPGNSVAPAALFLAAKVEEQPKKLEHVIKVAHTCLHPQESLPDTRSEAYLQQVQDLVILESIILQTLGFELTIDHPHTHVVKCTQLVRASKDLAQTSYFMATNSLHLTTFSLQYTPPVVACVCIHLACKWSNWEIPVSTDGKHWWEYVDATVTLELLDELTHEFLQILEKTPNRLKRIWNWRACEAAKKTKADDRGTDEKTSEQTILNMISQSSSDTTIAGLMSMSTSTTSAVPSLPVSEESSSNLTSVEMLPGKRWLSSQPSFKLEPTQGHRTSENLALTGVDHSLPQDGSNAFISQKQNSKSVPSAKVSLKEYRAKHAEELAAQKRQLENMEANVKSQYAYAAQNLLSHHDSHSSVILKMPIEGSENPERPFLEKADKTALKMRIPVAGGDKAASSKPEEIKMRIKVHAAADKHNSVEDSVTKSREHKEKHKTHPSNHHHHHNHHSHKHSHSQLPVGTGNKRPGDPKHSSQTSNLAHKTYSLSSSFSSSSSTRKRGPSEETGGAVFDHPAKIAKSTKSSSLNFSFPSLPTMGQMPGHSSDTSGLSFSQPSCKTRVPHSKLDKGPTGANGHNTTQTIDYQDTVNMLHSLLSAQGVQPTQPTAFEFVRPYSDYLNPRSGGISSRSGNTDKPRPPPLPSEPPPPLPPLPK

## CS(=O)(Cc1cccc(Nc2ncc(F)c(-c3ccc(F)c4ccoc34)n2)c1)=NC#N (racemic) [Example 1, (rac)-[(3-{[5-Fluoro-4-(4-fluoro-1-benzofuran-7-yl)pyrimidin-2-yl]amino}benzyl)(methyl)oxido-λ^6-sulfanylidene]cyanamide]
  IC50: 0.9 nM
  Selectivity high ATP CDK9 over high ATP CDK2: IC50 (high ATP CDK2)/IC50 (high ATP CDK9): 622

## CS(=O)(Cc1cc(F)cc(Nc2ncc(F)c(-c3ccc(F)c4ccoc34)n2)c1)=NC#N (racemic) [Example 7, (rac)-[(3-Fluoro-5-{[5-fluoro-4-(4-fluoro-1-benzofuran-7-yl)pyrimidin-2-yl]amino}benzyl)(methyl)-oxido-λ^6-sulfanylidene]cyanamide]
  IC50: 1.9 nM
  Selectivity high ATP CDK9 over high ATP CDK2: IC50 (high ATP CDK2)/IC50 (high ATP CDK9): 343

## CS(=N)(=O)Cc1cc(F)cc(Nc2ncc(F)c(-c3ccc(F)c4ccoc34)n2)c1 (racemic) [Example 10, (rac)-5-Fluoro-4-(4-fluoro-1-benzofuran-7-yl)-N-{3-fluoro-5-[(S-methylsulfonimidoyl)-methyl]-phenyl}-pyrimidin-2-amine]
  IC50: 3.2 nM
  Selectivity high ATP CDK9 over high ATP CDK2: IC50 (high ATP CDK2)/IC50 (high ATP CDK9): 563

## Cc1cc(CS(C)(=O)=NC#N)cc(Nc2ncc(F)c(-c3ccc(F)c4ccoc34)n2)c1 (racemic) [Example 13, (rac)-[(3-{[5-Fluoro-4-(4-fluoro-1-benzofuran-7-yl)pyrimidin-2-yl]amino}-5-methylbenzyl)-(methyl)oxido-λ^6-sulfanylidene]cyanamide]
  IC50: 0.88 nM
  Selectivity high ATP CDK9 over high ATP CDK2: IC50 (high ATP CDK2)/IC50 (high ATP CDK9): 1364

## Cc1cc(CS(C)(=N)=O)cc(Nc2ncc(F)c(-c3ccc(F)c4ccoc34)n2)c1 (racemic) [Example 16, (rac)-5-Fluoro-4-(4-fluoro-1-benzofuran-7-yl)-N-{3-methyl-5-[(S-methylsulfonimidoyl)-methyl]phenyl}pyrimidin-2-amine]
  IC50: 6.4 nM
  Selectivity high ATP CDK9 over high ATP CDK2: IC50 (high ATP CDK2)/IC50 (high ATP CDK9): 77

## CS(=O)(Cc1cc(Nc2ncc(F)c(-c3ccc(F)c4ccoc34)n2)cc(S(F)(F)(F)(F)F)c1)=NC#N (racemic) [Example 17, (rac)-{[3-{[5-fluoro-4-(4-fluoro-1-benzofuran-7-yl)pyrimidin-2-yl]amino}-5-(pentafluoro-λ^6-sulfanyl)benzyl](methyl)oxido-λ^6-sulfanylidene}cyanamide]
  IC50: 7.4 nM
  Selectivity high ATP CDK9 over high ATP CDK2: IC50 (high ATP CDK2)/IC50 (high ATP CDK9): 197

## CS(=N)(=O)Cc1cc(Nc2ncc(F)c(-c3ccc(F)c4ccoc34)n2)cc(S(F)(F)(F)(F)F)c1 (racemic) [Example 18, (rac)-5-Fluoro-4-(4-fluoro-1-benzofuran-7-yl)-N-{3-[(S-methylsulfonimidoyl)methyl]-5-(pentafluoro-λ^6-sulfanyl)phenyl}pyrimidin-2-amine]
  IC50: 4.4 nM
  Selectivity high ATP CDK9 over high ATP CDK2: IC50 (high ATP CDK2)/IC50 (high ATP CDK9): 350

## CS(=O)(Cc1cccc(Nc2ncc(F)c(-c3ccc(F)c4ccoc34)n2)c1)=NC#N (single isomer, unassigned) [Example 2, [(3-{[5-Fluoro-4-(4-fluoro-1-benzofuran-7-yl)pyrimidin-2-yl]amino}benzyl)(methyl)oxido-λ^6-sulfanylidene]cyanamide]
  IC50: 1.1 nM
  Selectivity high ATP CDK9 over high ATP CDK2: IC50 (high ATP CDK2)/IC50 (high ATP CDK9): 321

## CS(=O)(Cc1cccc(Nc2ncc(F)c(-c3ccc(F)c4ccoc34)n2)c1)=NC#N (single isomer, unassigned) [Example 3, [(3-{[5-Fluoro-4-(4-fluoro-1-benzofuran-7-yl)pyrimidin-2-yl]amino}benzyl)(methyl)oxido-λ^6-sulfanylidene]cyanamide]
  IC50: 1 nM
  Selectivity high ATP CDK9 over high ATP CDK2: IC50 (high ATP CDK2)/IC50 (high ATP CDK9): 475

## CS(=N)(=O)Cc1cccc(Nc2ncc(F)c(-c3ccc(F)c4ccoc34)n2)c1 (single isomer, unassigned) [Example 5, 5-Fluoro-4-(4-fluoro-1-benzofuran-7-yl)-N-{3-[(S-methylsulfonimidoyl)-methyl]-phenyl}-pyrimidin-2-amine]
  IC50: 5.6 nM
  Selectivity high ATP CDK9 over high ATP CDK2: IC50 (high ATP CDK2)/IC50 (high ATP CDK9): 143

## CS(=O)(Cc1cc(F)cc(Nc2ncc(F)c(-c3ccc(F)c4ccoc34)n2)c1)=NC#N (single isomer, unassigned) [Example 8, [(3-Fluoro-5-{[5-fluoro-4-(4-fluoro-1-benzofuran-7-yl)pyrimidin-2-yl]amino}benzyl)(methyl)-oxido-λ^6-sulfanylidene]cyanamide]
  IC50: 1 nM
  Selectivity high ATP CDK9 over high ATP CDK2: IC50 (high ATP CDK2)/IC50 (high ATP CDK9): 812

## CS(=O)(Cc1cc(F)cc(Nc2ncc(F)c(-c3ccc(F)c4ccoc34)n2)c1)=NC#N (single isomer, unassigned) [Example 9, [(3-Fluoro-5-{[5-fluoro-4-(4-fluoro-1-benzofuran-7-yl)pyrimidin-2-yl]amino}benzyl)(methyl)-oxido-λ^6-sulfanylidene]cyanamide]
  IC50: 3.4 nM
  Selectivity high ATP CDK9 over high ATP CDK2: IC50 (high ATP CDK2)/IC50 (high ATP CDK9): 656

## CS(=N)(=O)Cc1cc(F)cc(Nc2ncc(F)c(-c3ccc(F)c4ccoc34)n2)c1 (single isomer, unassigned) [Example 11, 5-Fluoro-4-(4-fluoro-1-benzofuran-7-yl)-N-{3-fluoro-5-[(S-methylsulfonimidoyl)-methyl]-phenyl}-pyrimidin-2-amine]
  IC50: 3.7 nM
  Selectivity high ATP CDK9 over high ATP CDK2: IC50 (high ATP CDK2)/IC50 (high ATP CDK9): 247

## CS(=N)(=O)Cc1cc(F)cc(Nc2ncc(F)c(-c3ccc(F)c4ccoc34)n2)c1 (single isomer, unassigned) [Example 12, 5-Fluoro-4-(4-fluoro-1-benzofuran-7-yl)-N-{3-fluoro-5-[(S-methylsulfonimidoyl)-methyl]-phenyl}-pyrimidin-2-amine]
  IC50: 0.99 nM
  Selectivity high ATP CDK9 over high ATP CDK2: IC50 (high ATP CDK2)/IC50 (high ATP CDK9): 1263

## Cc1cc(CS(C)(=O)=NC#N)cc(Nc2ncc(F)c(-c3ccc(F)c4ccoc34)n2)c1 (single isomer, unassigned) [Example 14, [(3-{[5-Fluoro-4-(4-fluoro-1-benzofuran-7-yl)pyrimidin-2-yl]amino}-5-methylbenzyl)-(methyl)oxido-λ^6-sulfanylidene]cyanamide]
  IC50: 2.2 nM
  Selectivity high ATP CDK9 over high ATP CDK2: IC50 (high ATP CDK2)/IC50 (high ATP CDK9): 385

## Cc1cc(CS(C)(=O)=NC#N)cc(Nc2ncc(F)c(-c3ccc(F)c4ccoc34)n2)c1 (single isomer, unassigned) [Example 15, [(3-{[5-Fluoro-4-(4-fluoro-1-benzofuran-7-yl)pyrimidin-2-yl]amino}-5-methylbenzyl)-(methyl)oxido-λ^6-sulfanylidene]cyanamide]
  IC50: 1.6 nM
  Selectivity high ATP CDK9 over high ATP CDK2: IC50 (high ATP CDK2)/IC50 (high ATP CDK9): 522
